In patent US20230293517A1, “ANTAGONIST COMPOUNDS” (AdoRx Therapeutics Limited, priority 2020, published 2023):
Several values for one entry are separate records, joined by “and”; a condition that tells them apart may be missing. Equal entries are not always repeated. Structures can show the parent of a compound that is named as a salt. Where two headings read alike, the source gives them in different places.

Key:
[1] = target: human Adenosine A2b receptor (Homo sapiens (Human), UniProt P29275); assay: Adenosine receptor TR-FRET binding assay (A2b)
Sequence of human Adenosine A2b receptor (P29275 whole entry): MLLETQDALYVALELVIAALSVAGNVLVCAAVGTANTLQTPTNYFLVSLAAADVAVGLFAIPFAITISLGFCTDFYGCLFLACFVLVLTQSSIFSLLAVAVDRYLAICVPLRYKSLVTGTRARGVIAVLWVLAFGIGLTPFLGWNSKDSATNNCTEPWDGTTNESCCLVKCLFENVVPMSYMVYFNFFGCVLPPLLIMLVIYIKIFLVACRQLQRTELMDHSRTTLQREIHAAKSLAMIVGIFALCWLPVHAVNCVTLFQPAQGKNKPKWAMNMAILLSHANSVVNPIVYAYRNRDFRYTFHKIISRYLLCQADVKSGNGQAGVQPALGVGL
Description: (§1) Biological Example 1—Adenosine Receptor Time-Resolved Fluorescence Resonance Energy Transfer (TRFRET) Binding Assay
(§2) All FRET binding experiments were conducted at room temperature in white 384-well plates, in assay binding buffer containing 1×LabMed (Cisbio, France), 100 μg/mL saponin, 1% DMSO and 0.02% pluronic acid. Binding of the fluorescently labelled Adenosine receptor antagonist XAC (CA200645, FRET acceptor) to terbium-labelled A1, A2a, A2b and A3 adenosine receptors (FRET donors) was detected by time-resolved FRET due to the close proximity of the donor and acceptor in a binding event. To investigate the ability of unlabelled test compounds to bind to Adenosine A1, A2a, A2b and A3 receptors, dose response curves were constructed that determined the ability of a range of concentrations to inhibit the binding of 30 nM CA200645 to the A2b receptor and 100 nM CA200645 to the A1, A2a, and A3 receptor.
(§3) Serial dilution (1:3 dilutions) of test compounds in neat DMSO and transfer of a 400 nL sample of test compound into the assay plate was carried out using the Mosquito (TTP Labtech, UK). The compound samples were incubated for 2 hours at room temperature with a fixed concentration of CA200645 defined for each receptor (see above) and CHO cell membranes containing the human Adenosine A1 (0.5 μg/well), A2a (0.3 μg/well), A2b (1 μg/well) or A3 (1 μg/well) receptor in 40 μL of assay buffer. Total and non-specific binding of CA200645 was determined in the absence and presence of 10 μM XAC, respectively. Following 2 hours incubation, the level of CA200645 binding was detected on a Pherastar FSX (BMG Labtech, Germany) using standard TR-FRET settings. The terbium donor was excited with three laser flashes at a wavelength of 337 nm, and donor and acceptor emission was detected at 620 nm and 665 nm wavelengths, respectively. FRET ratios were obtained by multiplying the acceptor/donor ratio value by 10,000. Specific binding was determined by subtracting the non-specific binding FRET ratio from the total binding FRET ratio. Compound IC50 curves were analysed using GraphPad Prism 7.0 (GraphPad, USA) and Ki affinity values were determined from the obtained IC50 values using the method of Cheng and Prusoff.

[2] = target: human Adenosine A2a receptor (Homo sapiens (Human), UniProt P29274); assay: Adenosine receptor TR-FRET binding assay (A2a); conditions: inhibition of binding of 100 nM CA200645, CHO cell membranes
Sequence of human Adenosine A2a receptor (P29274 whole entry): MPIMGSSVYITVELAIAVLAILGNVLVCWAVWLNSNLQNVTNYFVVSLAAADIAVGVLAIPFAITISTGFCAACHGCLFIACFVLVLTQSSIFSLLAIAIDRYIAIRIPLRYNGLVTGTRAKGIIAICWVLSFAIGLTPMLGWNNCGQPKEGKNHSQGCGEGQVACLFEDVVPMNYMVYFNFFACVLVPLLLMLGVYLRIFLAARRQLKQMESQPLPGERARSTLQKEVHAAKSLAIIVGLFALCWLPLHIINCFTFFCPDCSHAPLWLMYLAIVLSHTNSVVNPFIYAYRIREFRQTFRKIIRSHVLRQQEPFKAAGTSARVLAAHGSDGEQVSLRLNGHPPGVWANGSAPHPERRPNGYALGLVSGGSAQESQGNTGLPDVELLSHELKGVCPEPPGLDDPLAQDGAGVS
Description: as §1, §2, §3

[3] = target: human Adenosine A1 receptor (Homo sapiens (Human), UniProt P30542); assay: Adenosine receptor TR-FRET binding assay (A1); conditions: inhibition of binding of 100 nM CA200645, CHO cell membranes
Sequence of human Adenosine A1 receptor (P30542 whole entry): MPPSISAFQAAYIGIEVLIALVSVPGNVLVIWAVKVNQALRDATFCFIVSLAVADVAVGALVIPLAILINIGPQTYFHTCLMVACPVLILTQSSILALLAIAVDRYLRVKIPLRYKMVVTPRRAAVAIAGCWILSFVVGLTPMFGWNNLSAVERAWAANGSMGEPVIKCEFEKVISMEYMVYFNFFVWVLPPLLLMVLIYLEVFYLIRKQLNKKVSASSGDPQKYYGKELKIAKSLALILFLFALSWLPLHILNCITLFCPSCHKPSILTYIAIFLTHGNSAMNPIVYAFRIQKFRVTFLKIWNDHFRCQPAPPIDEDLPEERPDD
Description: as §1, §2, §3

[4] = TR-FRET, inhibition of binding of 30 nM CA200645, CHO cell membranes

Ki [1]	Ki [2]	Ki [3]	Ki [1, 4]	Compound	Ki ([3]; formate salt)	Ki ([1]; TR-FRET, inhibition of binding of 30 nM CA200645, CHO cell membranes, formate salt)
7.6 nM	3.49 nM	–	–	Cc1cc(-c2sc(NC(=O)N3C[C@@H]4NCCO[C@H]4C3)nc2-c2cccc(C#N)c2)cc(C)n1 (racemic) [Example 14.3, rac-(4aS,7aS)—N-[4-(3-Cyanophenyl)-5-(2,6-dimethyl-4-pyridyl)thiazol-2-yl]-3,4,4a,5,7,7a-hexahydro-2H-pyrrolo[3,4-b][1,4]oxazine-6-carboxamide 2,2,2-trifluoroacetic acid salt]	–	–
–	12.8 nM	110 nM	78.7 nM	Cc1cc(-c2sc(NC(=O)N3C[C@@H](C)NC[C@@H]3C)nc2-c2cccc(C#N)c2)cc(C)n1 (relative stereo) [Example 7.11, trans-N-[4-(3-Cyanophenyl)-5-(2,6-dimethyl-4-pyridyl)thiazol-2-yl]-2,5-dimethyl-piperazine-1-carboxamide]	–	–
–	2.15 nM	136 nM	3.9 nM	Cc1cc(-c2sc(NC(=O)N3CCCC3CC(C)(C)O)nc2-c2cccc(C#N)c2)cc(Cl)n1 (stereo not shown) [Example 3.3]	–	–
–	12.2 nM	268 nM	13 nM	Cc1cc(-c2sc(NC(=O)N3CCN(CC(C)(C)O)CC3)nc2-c2cccc(C#N)c2)cc(C)n1 [Example 4.34, N-[4-(3-Cyanophenyl)-5-(2,6-dimethyl-4-pyridyl)thiazol-2-yl]-4-(2-hydroxy-2-methyl-propyl)piperazine-1-carboxamide]	–	–
–	4.29 nM	545 nM	27.1 nM	Cc1cc(-c2sc(NC(=O)N3CCN(C(C)(C)CO)CC3)nc2-c2cccc(C#N)c2)cc(C)n1 [Example 4.37, N-[4-(3-Cyanophenyl)-5-(2,6-dimethyl-4-pyridyl)thiazol-2-yl]-4-(2-hydroxy-1,1-dimethyl-ethyl)piperazine-1-carboxamide]	–	–
–	–	–	–	Cc1cc(-c2sc(NC(=O)N3CCN4CCC[C@H]4C3)nc2-c2cccc(C#N)c2)cc(C)n1 [Example 4.38, (8aS)-N-[4-(3-Cyanophenyl)-5-(2,6-dimethyl-4-pyridyl)thiazol-2-yl]-3,4,6,7,8,8a-hexahydro-1H-pyrrolo[1,2-a]pyrazine-2-carboxamide formate salt]	180 nM and 75 nM	8.1 nM and 3.5 nM
–	0.2 nM	18 nM	6.4 nM	Cc1cc(-c2sc(NC(=O)N3CCC(C)(C#N)CC3)nc2-c2cccc(C#N)c2)cc(C2COC2)n1 [Example 6.111, 4-Cyano-N-[4-(3-cyanophenyl)-5-[2-methyl-6-(oxetan-3-yl)-4-pyridyl]thiazol-2-yl]-4-methyl-piperidine-1-carboxamide]	–	–
–	4.3 nM	339 nM	23.6 nM	Cc1cc(-c2sc(NC(=O)N3CC(N4CCOCC4)C3)nc2-c2cccc(C#N)c2)cc(C)n1 [Example 6.112, N-[4-(3-Cyanophenyl)-5-(2,6-dimethyl-4-pyridyl)thiazol-2-yl]-3-morpholino-azetidine-1-carboxamide]	–	–
–	9.95 nM	240 nM	23 nM	Cc1cc(-c2sc(NC(=O)N3CC(N4CCCC4)C3)nc2-c2cccc(C#N)c2)cc(C)n1 [Example 6.114, N-[4-(3-Cyanophenyl)-5-(2,6-dimethyl-4-pyridyl)thiazol-2-yl]-3-pyrrolidin-1-yl-azetidine-1-carboxamide]	–	–
–	8 nM	177 nM	29 nM	Cc1cc(-c2sc(NC(=O)N3CC(N(C)C)C3)nc2-c2cccc(C#N)c2)cc(C)n1 [Example 6.115, N-[4-(3-Cyanophenyl)-5-(2,6-dimethyl-4-pyridyl)thiazol-2-yl]-3-(dimethylamino)azetidine-1-carboxamide]	–	–
–	11.1 nM	123 nM	63.9 nM	Cc1cc(-c2sc(NC(=O)N3CC4CN(C)CC43)nc2-c2cccc(C#N)c2)cc(C)n1 (stereo not shown) [Example 6.120, N-[4-(3-Cyanophenyl)-5-(2,6-dimethyl-4-pyridyl)thiazol-2-yl]-3-methyl-3,6-diazabicyclo[3.2.0]heptane-6-carboxamide]	–	–
–	1.94 nM	123 nM	6.8 nM	Cc1cc(-c2sc(NC(=O)N3CCN4CCC3C4)nc2-c2cccc(C#N)c2)cc(C)n1 (stereo not shown) [Example 6.121, N-[4-(3-Cyanophenyl)-5-(2,6-dimethyl-4-pyridyl)thiazol-2-yl]-1,4-diazabicyclo[3.2.1]octane-4-carboxamide]	–	–
–	1.02 nM	208 nM	5.7 nM	Cc1cc(-c2sc(NC(=O)N3CCC4(CC3)CNCCO4)nc2-c2cccc(C#N)c2)cc(C)n1 [Example 7.3, N-[4-(3-Cyanophenyl)-5-(2,6-dimethyl-4-pyridyl)thiazol-2-yl]-1-oxa-4,9-diazaspiro[5.5]undecane-9-carboxamide]	–	–
–	4.09 nM	162 nM	22.6 nM	Cc1cc(-c2sc(NC(=O)N3C[C@H]4CC[C@@H]3CN4)nc2-c2cccc(C#N)c2)cc(C)n1 [Example 7.6, (1R,4R)—N-[4-(3-Cyanophenyl)-5-(2,6-dimethyl-4-pyridyl)thiazol-2-yl]-2,5-diazabicyclo[2.2.2]octane-2-carboxamide]	–	–
–	5.27 nM	49 nM	18.2 nM	Cc1cc(-c2sc(NC(=O)N3C[C@H](C)NC[C@@H]3C)nc2-c2cccc(C#N)c2)cc(C)n1 [Example 7.7, (2S,5S)—N-[4-(3-Cyanophenyl)-5-(2,6-dimethyl-4-pyridyl)thiazol-2-yl]-2,5-dimethyl-piperazine-1-carboxamide]	–	–
–	6.73 nM	194 nM	60.2 nM	Cc1cc(-c2sc(NC(=O)N3[C@H](C)CNC[C@H]3C)nc2-c2cccc(C#N)c2)cc(C)n1 [Example 7.8, (2R,6R)—N-[4-(3-Cyanophenyl)-5-(2,6-dimethyl-4-pyridyl)thiazol-2-yl]-2,6-dimethyl-piperazine-1-carboxamide]	–	–
–	10.3 nM	61 nM	44.2 nM	Cc1cc(-c2sc(NC(=O)N3CCNCC3(C)C)nc2-c2cccc(C#N)c2)cc(C)n1 [Example 7.9, N-[4-(3-Cyanophenyl)-5-(2,6-dimethyl-4-pyridyl)thiazol-2-yl]-2,2-dimethyl-piperazine-1-carboxamide]	–	–

Compound	Ki [1]	Ki [2]	Ki [3]	Ki [1, 4]	Ki ([3]; formate salt)	Ki ([1]; TR-FRET, inhibition of binding of 30 nM CA200645, CHO cell membranes, formate salt)
Cc1cc(-c2sc(NC(=O)N3CCC4(CCN4C)C3)nc2-c2cccc(C#N)c2)cc(C)n1 (stereo not shown) [Example 4.36, N-[4-(3-Cyanophenyl)-5-(2,6-dimethyl-4-pyridyl)thiazol-2-yl]-1-methyl-1,7-diazaspiro[3.4]octane-7-carboxamide formate salt]	–	2.48 nM	316 nM	13.8 nM	–	–
Cc1cc(-c2sc(NC(=O)N3C[C@H]4CC[C@@H](C3)N(C)C4)nc2-c2cccc(C#N)c2)cc(C)n1 [Example 6.5, (1S,5S)-N-[4-(3-Cyanophenyl)-5-(2,6-dimethyl-4-pyridyl)thiazol-2-yl]-6-methyl-3,6-diazabicyclo[3.2.2]nonane-3-carboxamide]	–	4.63 nM	93 nM	23.1 nM	–	–
Cc1cc(-c2sc(NC(=O)N3CCN(C4CCOCC4)CC3)nc2-c2cccc(C#N)c2)cc(C)n1 [Example 6.113, N-[4-(3-Cyanophenyl)-5-(2,6-dimethyl-4-pyridyl)thiazol-2-yl]-4-tetrahydropyran-4-yl-piperazine-1-carboxamide diformate salt]	–	10.8 nM	361 nM	8.3 nM	–	–
Cc1cc(-c2sc(NC(=O)N3CCC(CN4CCOCC4)CC3)nc2-c2cccc(C#N)c2)cc(C)n1 [Example 6.116, N-[4-(3-Cyanophenyl)-5-(2,6-dimethyl-4-pyridyl)thiazol-2-yl]-4-(morpholinomethyl)piperidine-1-carboxamide formate salt]	–	7.39 nM	281 nM	10 nM	–	–
Cc1cc(-c2sc(NC(=O)N3C4CCC3CNC4)nc2-c2cccc(C#N)c2)cc(C)n1 [Example 7.4, N-[4-(3-Cyanophenyl)-5-(2,6-dimethyl-4-pyridyl)thiazol-2-yl]-3,8-diazabicyclo[3.2.1]octane-8-carboxamide]	–	2.73 nM	58 nM	13.5 nM	–	–
Cc1cc(-c2sc(NC(=O)N3C4CNCC3C4)nc2-c2cccc(C#N)c2)cc(C)n1 [Example 7.5, N-[4-(3-Cyanophenyl)-5-(2,6-dimethyl-4-pyridyl)thiazol-2-yl]-3,6-diazabicyclo[3.1.1]heptane-6-carboxamide]	–	1.26 nM	9 nM	11.9 nM	–	–
